pIC50: −log10 of the molar value. Structures can show the parent of a compound that is named as a salt. Where two headings read alike, the source gives them in different places.
What was measured:
Assay type in all cases: biochemical
TYK2 = TYK2 (Homo sapiens, UniProt P29597); experiment: TYK2 kinase inhibition (Table A1)
[1] = target: T1, Recombinant Human Anaplastic Lymphoma Kinase (Homo sapiens, UniProt Q9UM73); experiment: ALK HTRF kinase assay
T1 construct: purchased Invitrogen, Carlsbad, Calif
Method in brief: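 Biotinylated peptide substrate, recombinant human ALK; detection via europium-chelate antibody to phosphotyrosine paired with streptavidin-APC. Potency expressed as IC50 from four-parameter curve fitting.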

[2] = target: T2, human JAK2 (a.a. 828-1132) (Homo sapiens, UniProt O60674); experiment: In vitro JAK kinase assay (HTRF, phosphorylation of a biotinylated peptide), JAK2
T2 construct: JAK2 (a.a. 828-1132); His tag (N); made in house; host or cells: insect cells (baculovirus)
Method in brief: (§1)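 Phosphorylation of a biotinylated peptide by the JAK kinase domain, detected by HTRF with Eu-Py20 and SA-APC. ATP was 90 μM for JAK1, 30 μM for JAK2 and 3 μM for JAK3. Reactions ran 1 h at room temperature and were stopped with EDTA, followed by 40 min antibody binding.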

[3] = target: T3, human JAK3 (a.a. 781-1124) (Homo sapiens, UniProt P52333); experiment: In vitro JAK kinase assay (HTRF, phosphorylation of a biotinylated peptide), JAK3
T3 construct: JAK3 (a.a. 781-1124); His tag (N); made in house; host or cells: insect cells (baculovirus)
Method in brief: as §1

[4] = target: T4, human JAK1 (a.a. 837-1142) (Homo sapiens, UniProt P23458); experiment: In vitro JAK kinase assay (HTRF, phosphorylation of a biotinylated peptide), JAK1; conditions: read-out: JAK1 IC50
T4 construct: human JAK1 (a.a. 837-1142); His tag (N); made in house; host or cells: insect cells (baculovirus)
Method in brief: as §1

[5] = compound at 500 nM or 1 mM, 90 μM ATP
[6] = method AA1 (30 μM ATP) or AA2 (1000 μM ATP), not stated per value
[7] = method AA1 (3 μM ATP) or AA2 (1000 μM ATP), not stated per value
[8] = method AA1 (90 μM ATP) or AA2 (1000 μM ATP), not stated per value
[9] = compound at a concentration of 500 nM or 1 mM (not specified), cells shown as percentage
[10] = Table B1, cells without percent sign

T1 sequence (Q9UM73 19-1620): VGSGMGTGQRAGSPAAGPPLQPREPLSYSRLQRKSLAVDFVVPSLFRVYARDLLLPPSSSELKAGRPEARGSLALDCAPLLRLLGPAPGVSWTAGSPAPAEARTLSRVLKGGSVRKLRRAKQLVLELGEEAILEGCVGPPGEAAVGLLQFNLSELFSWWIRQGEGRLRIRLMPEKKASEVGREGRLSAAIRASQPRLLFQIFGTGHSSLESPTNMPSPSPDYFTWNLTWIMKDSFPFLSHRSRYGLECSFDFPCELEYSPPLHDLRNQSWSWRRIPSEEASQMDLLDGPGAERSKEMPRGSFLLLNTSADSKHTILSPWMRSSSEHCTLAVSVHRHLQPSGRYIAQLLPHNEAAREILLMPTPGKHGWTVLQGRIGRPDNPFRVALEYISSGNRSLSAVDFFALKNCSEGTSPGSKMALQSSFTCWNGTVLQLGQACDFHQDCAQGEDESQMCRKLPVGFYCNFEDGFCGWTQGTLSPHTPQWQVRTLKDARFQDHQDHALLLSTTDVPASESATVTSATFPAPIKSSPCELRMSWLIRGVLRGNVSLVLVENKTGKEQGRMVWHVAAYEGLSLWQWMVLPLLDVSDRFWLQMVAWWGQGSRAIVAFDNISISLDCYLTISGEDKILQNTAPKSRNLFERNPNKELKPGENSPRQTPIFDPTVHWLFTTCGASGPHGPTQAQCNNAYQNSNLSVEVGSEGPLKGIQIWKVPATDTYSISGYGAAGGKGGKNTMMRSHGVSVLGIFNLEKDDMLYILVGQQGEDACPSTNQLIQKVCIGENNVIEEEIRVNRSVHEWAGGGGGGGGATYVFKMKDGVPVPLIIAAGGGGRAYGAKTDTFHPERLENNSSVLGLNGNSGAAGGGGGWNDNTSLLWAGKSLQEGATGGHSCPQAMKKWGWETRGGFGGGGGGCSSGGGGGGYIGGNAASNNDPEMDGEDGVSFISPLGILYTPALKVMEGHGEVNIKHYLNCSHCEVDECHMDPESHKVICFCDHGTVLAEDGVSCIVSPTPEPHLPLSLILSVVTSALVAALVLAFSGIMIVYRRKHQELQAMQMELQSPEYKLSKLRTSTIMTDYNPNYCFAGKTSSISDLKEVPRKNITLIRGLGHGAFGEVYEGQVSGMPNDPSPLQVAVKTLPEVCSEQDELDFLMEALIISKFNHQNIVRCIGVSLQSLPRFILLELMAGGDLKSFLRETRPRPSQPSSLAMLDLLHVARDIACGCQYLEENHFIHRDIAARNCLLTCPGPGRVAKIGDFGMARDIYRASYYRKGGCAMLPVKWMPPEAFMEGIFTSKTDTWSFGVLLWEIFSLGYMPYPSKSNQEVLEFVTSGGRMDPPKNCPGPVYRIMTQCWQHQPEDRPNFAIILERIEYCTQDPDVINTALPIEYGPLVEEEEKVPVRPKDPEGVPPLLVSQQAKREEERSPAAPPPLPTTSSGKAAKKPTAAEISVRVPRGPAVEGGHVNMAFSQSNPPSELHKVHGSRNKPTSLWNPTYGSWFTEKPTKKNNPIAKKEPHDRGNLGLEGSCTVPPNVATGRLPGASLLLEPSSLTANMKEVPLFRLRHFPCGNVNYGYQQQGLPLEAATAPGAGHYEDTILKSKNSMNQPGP
T3 sequence (P52333 781-1124): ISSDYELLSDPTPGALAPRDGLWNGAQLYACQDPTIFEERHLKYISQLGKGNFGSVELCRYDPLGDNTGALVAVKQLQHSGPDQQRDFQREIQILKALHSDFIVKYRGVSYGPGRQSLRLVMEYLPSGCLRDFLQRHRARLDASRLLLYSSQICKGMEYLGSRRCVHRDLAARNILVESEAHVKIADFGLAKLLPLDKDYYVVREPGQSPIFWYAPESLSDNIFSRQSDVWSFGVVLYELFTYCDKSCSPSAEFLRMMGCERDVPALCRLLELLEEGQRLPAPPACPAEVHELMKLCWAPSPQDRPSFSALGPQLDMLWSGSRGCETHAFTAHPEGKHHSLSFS
T2 sequence (O60674 828-1132): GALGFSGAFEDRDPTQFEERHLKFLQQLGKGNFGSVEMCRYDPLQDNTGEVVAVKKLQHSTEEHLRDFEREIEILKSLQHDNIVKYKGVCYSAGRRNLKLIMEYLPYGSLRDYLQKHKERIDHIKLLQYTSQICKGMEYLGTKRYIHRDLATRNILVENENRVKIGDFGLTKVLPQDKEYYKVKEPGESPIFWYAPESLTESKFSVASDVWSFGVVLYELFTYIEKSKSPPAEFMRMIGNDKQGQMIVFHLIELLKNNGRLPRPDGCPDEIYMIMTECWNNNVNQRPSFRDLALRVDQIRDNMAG
T4 sequence (P23458 849-1154): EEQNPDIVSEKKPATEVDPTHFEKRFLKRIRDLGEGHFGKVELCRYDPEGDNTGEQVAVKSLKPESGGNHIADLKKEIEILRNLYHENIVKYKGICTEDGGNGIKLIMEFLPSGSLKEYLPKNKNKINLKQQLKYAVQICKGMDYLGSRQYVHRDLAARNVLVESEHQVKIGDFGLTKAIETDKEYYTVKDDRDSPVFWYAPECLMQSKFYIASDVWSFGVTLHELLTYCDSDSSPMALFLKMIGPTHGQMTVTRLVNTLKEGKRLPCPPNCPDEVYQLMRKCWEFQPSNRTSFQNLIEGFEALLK
Sequence of TYK2 (P29597 whole entry): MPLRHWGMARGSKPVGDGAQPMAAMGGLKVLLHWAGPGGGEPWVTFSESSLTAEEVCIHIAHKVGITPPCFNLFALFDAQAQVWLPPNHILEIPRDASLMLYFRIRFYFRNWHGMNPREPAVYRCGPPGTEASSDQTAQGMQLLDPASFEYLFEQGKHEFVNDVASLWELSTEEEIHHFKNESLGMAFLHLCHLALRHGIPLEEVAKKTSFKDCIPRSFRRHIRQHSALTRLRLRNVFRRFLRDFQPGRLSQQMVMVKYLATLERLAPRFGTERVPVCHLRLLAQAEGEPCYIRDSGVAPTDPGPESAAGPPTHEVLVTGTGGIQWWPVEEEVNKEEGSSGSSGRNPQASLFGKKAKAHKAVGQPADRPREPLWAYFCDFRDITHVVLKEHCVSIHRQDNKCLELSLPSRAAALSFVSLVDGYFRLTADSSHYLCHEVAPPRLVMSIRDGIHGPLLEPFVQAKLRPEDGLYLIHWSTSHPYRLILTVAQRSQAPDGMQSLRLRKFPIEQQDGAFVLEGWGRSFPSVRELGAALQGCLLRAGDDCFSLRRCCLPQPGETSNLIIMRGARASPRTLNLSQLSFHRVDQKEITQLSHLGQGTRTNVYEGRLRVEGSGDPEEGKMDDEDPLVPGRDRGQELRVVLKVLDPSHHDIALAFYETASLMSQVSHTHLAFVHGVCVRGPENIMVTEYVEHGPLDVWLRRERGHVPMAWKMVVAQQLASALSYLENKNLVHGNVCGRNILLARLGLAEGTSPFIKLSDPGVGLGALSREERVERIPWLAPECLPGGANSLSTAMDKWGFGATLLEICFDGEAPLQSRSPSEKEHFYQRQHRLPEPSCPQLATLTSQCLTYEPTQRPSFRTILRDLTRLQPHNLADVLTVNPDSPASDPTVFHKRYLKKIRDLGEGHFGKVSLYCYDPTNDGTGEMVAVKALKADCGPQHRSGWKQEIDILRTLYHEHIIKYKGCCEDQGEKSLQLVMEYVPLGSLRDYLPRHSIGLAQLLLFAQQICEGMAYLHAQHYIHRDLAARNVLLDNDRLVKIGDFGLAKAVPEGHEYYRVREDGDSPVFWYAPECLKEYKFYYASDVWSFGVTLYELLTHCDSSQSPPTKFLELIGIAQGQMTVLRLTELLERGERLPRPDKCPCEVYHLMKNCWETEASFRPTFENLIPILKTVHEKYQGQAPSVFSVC

Structure (SMILES)	pIC50 (TYK2)	ALK % of inhibition at a concentration of 500 nM or 1 mM [1, 5] [%]	pIC50 [2, 6]	pIC50 [3, 7]	pIC50 [4, 8]	pIC50 (TYK2; Table B1)	pIC50 ([2]; Table B1)	pIC50 ([3]; Table B1)	pIC50 ([4]; Table B1)	further results
O=C(CC1CCN(C(=O)Nc2ccccc2F)CC1)Nc1ccc2cc1CCc1cncc(c1)Nc1ncc(Cl)c(n1)N2 [Example A146, 4-(2-{[6-Chloro-2,4,8,18,22-pentaazatetracyclo[14.3.1.1(3,7).1(9,13)]docosa-1(20),3(22),4,6,9(21),10,12,16,18-nonaen-12-yl]amino}-2-oxoethyl)-N-(2-fluorophenyl)piperidine-1-carboxamide bis(trifluoroacetate)]	8.15	34	8.44	< 7.00	9.05					
O=C(c1cc2cc(c1)OCCSc1cccc(c1)Nc1nc(ncc1Cl)N2)N1CCOCC1 [Example D52, trifluoroacetate]										pIC50 (TYK2; Table D1): 8.36; pIC50 ([1]; Table D1, 90 μM ATP): 6.38; pIC50 ([2]; Table D1): 8.92; pIC50 ([3]; Table D1): 7.89; pIC50 ([4]; Table D1): 8.82
O=C(CC1CCN(c2ccncc2)CC1)Nc1ccc2cc1CCc1cncc(c1)Nc1ncc(Cl)c(n1)N2 [Example A242, N-[6-Chloro-2,4,8,18,22-pentaazatetracyclo[14.3.1.1(3,7).1(9,13)]docosa-1(20),3(22),4,6,9(21),10,12,16,18-nonaen-12-yl]-2-(1-pyridin-4-ylpiperidin-4-yl)acetamide tris(trifluoroacetate)]	< 6.40	31	< 6.40	< 6.40	7.40					
Cc1ccnc(N2CCC(CC(=O)Nc3ccc4cc3CCc3cncc(c3)Nc3ncc(Cl)c(n3)N4)CC2)c1 [Example A176, N-[6-Chloro-2,4,8,18,22-pentaazatetracyclo[14.3.1.1(3,7).1(9,13)]docosa-1(20),3(22),4,6,9(21),10,12,16,18-nonaen-12-yl]-2-[1-(4-methylpyridin-2-yl)piperidin-4-yl]acetamide tris(trifluoroacetate)]	< 6.70	25	< 6.70	< 6.70	7.29					
Cn1ccc(C(=O)N2CCC(CC(=O)Nc3ccc4cc3CCc3cncc(c3)Nc3ncc(Cl)c(n3)N4)CC2)n1 [Example A130, N-[6-Chloro-2,4,8,18,22-pentaazatetracyclo[14.3.1.1(3,7).1(9,13)]docosa-1(20),3(22),4,6,9(21),10,12,16,18-nonaen-12-yl]-2-{1-[(1-methyl-1H-pyrazol-3-yl)carbonyl]piperidin-4-yl}acetamide bis(trifluoroacetate)]	8.32	26	8.04	6.69	8.92					
O=C(CC1CCNCC1)Nc1ccc2cc1CCc1cccc(c1)Nc1ncc(Cl)c(n1)N2 [Example A46, N-[6-Chloro-2,4,8,22-tetraazatetracyclo[14.3.1.1(3,7).1(9,13)]docosa-1(20), 3(22),4,6,9(21),10,12,16,18-nonaen-12-yl]-2-piperidin-4-ylacetamide bis(trifluoroacetate)]	7.38	20	7.80	7.31	8.00					
Cn1ccc2c(NC(=O)N3CCC(C(=O)Nc4ccc5cc4CCc4cccc(c4)Nc4ncc(Cl)c(n4)N5)CC3)cccc21 [Example A41, N(4)-[6-Chloro-2,4,8,22-tetraazatetracyclo[14.3.1.1(3,7).1(9,13)]docosa-1(20),3(22),4,6,9(21),10,12,16,18-nonaen-12-yl]-N(1)-(1-methyl-1H-indol-4-yl)piperidine-1,4-dicarboxamide trifluoroacetate]	6.99	58	7.92	6.80	8.24					
O=C(CC1CCN(C(=O)c2ccccc2)CC1)Nc1ccc2cc1CCc1cncc(c1)Nc1ncc(Cl)c(n1)N2 [Example A192, 2-(1-Benzoylpiperidin-4-yl)-N-[6-chloro-2,4,8,18,22-pentaazatetracyclo[14.3.1.1(3,7).1(9,13)]docosa-1(20),3(22),4,6,9(21),10,12,16,18-nonaen-12-yl]acetamide bis(trifluoroacetate)]	< 6.70	31	< 6.70	< 6.70	7.68					

Continued, in another order:

pIC50 (TYK2)	ALK % of inhibition at a concentration of 500 nM or 1 mM [1, 5] [%]	pIC50 [2, 6]	pIC50 [3, 7]	pIC50 [4, 8]	pIC50 (TYK2; Table B1)	pIC50 ([2]; Table B1)	pIC50 ([3]; Table B1)	pIC50 ([4]; Table B1)	Structure (SMILES)	further results
					6.39	6.43	< 6.00	7.14	CN(C(=O)Nc1ccc2cc1CCc1cncc(c1)Nc1ncc(Cl)c(n1)N2)[C@H]1CCN(Cc2ccccc2)C1 [Example B284, N-[(3S)-1-Benzylpyrrolidin-3-yl]-N′-[6-chloro-2,4,8,18,22-pentaazatetracyclo[14.3.1.1(3,7).1(9,13)]docosa-1(20),3(22),4,6,9(21),10,12,16,18-nonaen-12-yl]-N-methylurea]	ALK % of inhibition at a concentration of 500 nM or 1 mM [1, 9]: 25%
					7.85	8.41	8.23	8.31	CCC(=O)Nc1ccc2cc1CCc1cccc(c1)Nc1ncc(Cl)c(n1)N2 [Example B54, N-[6-Chloro-2,4,8,22-tetraazatetracyclo[14.3.1.1(3,7).1(9,13)]docosa-1(20), 3(22),4,6,9(21),10,12,16,18-nonaen-12-yl]propanamide trifluoroacetate]	pIC50 [1, 10]: 6.01
					9.21	9.96	8.59	9.30	O=S(=O)(Nc1ccc2cc1CCc1cccc(c1)Nc1ncc(Cl)c(n1)N2)c1cccs1 [Example B146, N-[6-Chloro-2,4,8,22-tetraazatetracyclo[14.3.1.1(3,7).1(9,13)]docosa-1(20), 3(22),4,6,9(21),10,12,16,18-nonaen-12-yl]thiophene-2-sulfonamide trifluoroacetate]	pIC50 [1, 10]: 6.89
					7.51	7.74	7.16	8.05	O=C(Nc1ccc2cc1CCc1cccc(c1)Nc1ncc(Cl)c(n1)N2)N[C@@H]1CCNC1 [Example B175, N-[6-Chloro-2,4,8,22-tetraazatetracyclo[14.3.1.1(3,7).1(9,13)]docosa-1(20),3(22),4,6,9(21),10,12,16,18-nonaen-12-yl]-N′-[(3R)-pyrrolidin-3-yl]urea dihydrochloride]	ALK % of inhibition at a concentration of 500 nM or 1 mM [1, 9]: 18%
					8.89	9.46	8.85	9.22	Cc1ccccc1C(=O)Nc1ccc2cc1CCc1cccc(c1)Nc1ncc(Cl)c(n1)N2 [Example B35, N-[6-Chloro-2,4,8,22-tetraazatetracyclo[14.3.1.1(3,7).1(9,13)]docosa-1(20), 3(22),4,6,9(21),10,12,16,18-nonaen-12-yl]-2-methylbenzamide trifluoroacetate]	pIC50 [1, 10]: 7.12
					9.01	9.59	8.40	8.85	O=C(Nc1ccc2cc1CCc1cccc(c1)Nc1ncc(Cl)c(n1)N2)c1ccccc1F [Example B38, N-[6-Chloro-2,4,8,22-tetraazatetracyclo[14.3.1.1(3,7).1(9,13)]docosa-1(20), 3(22),4,6,9(21),10,12,16,18-nonaen-12-yl]-2-fluorobenzamide trifluoroacetate]	pIC50 [1, 10]: 6.68
					7.32	7.59	< 6.70	8.08	O=C(c1coc(Nc2ccc3cc2CCc2cccc(c2)Nc2ncc(Cl)c(n2)N3)n1)N1CCN2CCCC2C1 (stereo not shown) [Example B296, 6-Chloro-N-[4-(hexahydropyrrolo[1,2-a]pyrazin-2(1H)-ylcarbonyl)-2,3-oxazol-2-yl]-2,4,8,22-tetraazatetracyclo[14.3.1.1(3,7).1(9,13)]docosa-1(20),3(22),4,6,9(21),10,12,16,18-nonaen-12-amine bis(trifluoroacetate)]	ALK % of inhibition at a concentration of 500 nM or 1 mM [1, 9]: 33%
					7.70	8.11	7.14	8.28	Cc1cccc(NC(=O)Nc2ccc3cc2CCc2cccc(c2)Nc2ncc(Cl)c(n2)N3)c1 [Example B90, N-[6-Chloro-2,4,8,22-tetraazatetracyclo[14.3.1.1(3,7).1(9,13)]docosa-1(20), 3(22),4,6,9(21),10,12,16,18-nonaen-12-yl]-N′-(3-methylphenyl)urea trifluoroacetate]	pIC50 [1, 10]: < 6.00
					6.82	6.70	< 6.70	7.52	O=C(Nc1ccc2cc1CCc1cncc(c1)Nc1ncc(Cl)c(n1)N2)N1CCN(c2ccccc2F)CC1 [Example B295, N-[6-Chloro-2,4,8,18,22-pentaazatetracyclo[14.3.1.1(3,7).1(9,13)]docosa-1(20),3(22),4,6,9(21),10,12,16,18-nonaen-12-yl]-4-(2-fluorophenyl)piperazine-1-carboxamide tris(trifluoroacetate)]	ALK % of inhibition at a concentration of 500 nM or 1 mM [1, 9]: 50%
